Test system: P12-Ichikawa
Test: cell viability relative to DMSO control; higher = less cytotoxic
Conditions: 48 h
In short: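 Library compounds in DMSO were pin-dosed into 1536-well plates (5 μl) holding NOMO1 or SEM (500 cells/well) or P12-Ichikawa (1000 cells/well) leukemia cells, across an 11-point threefold series of 47 μM to 0.79 nM. Each cell line had been adapted for at least four passages in each medium. CellTiter-Glo One luminescence was read after 48 h at 37°C. Viability is the per-plate percentage relative to DMSO wells, with cell-free wells as background.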

[1] = HPLM + 10% dialyzed FBS, 0.000781 µM
[2] = HPLM + 10% dialyzed FBS, 0.00234 µM
[3] = HPLM + 10% dialyzed FBS, 0.00702 µM
[4] = HPLM + 10% dialyzed FBS, 0.0211 µM
[5] = HPLM + 10% dialyzed FBS, 0.0632 µM
[6] = HPLM + 10% dialyzed FBS, 0.19 µM
[7] = HPLM + 10% dialyzed FBS, 0.569 µM
[8] = HPLM + 10% dialyzed FBS, 1.71 µM
[9] = HPLM + 10% dialyzed FBS, 5.12 µM
[10] = HPLM + 10% dialyzed FBS, 15.4 µM
[11] = HPLM + 10% dialyzed FBS, 46.1 µM
[12] = RPMI 5 mM glucose + 10% FBS, 0.000781 µM
[13] = RPMI 5 mM glucose + 10% FBS, 0.00234 µM
[14] = RPMI 5 mM glucose + 10% FBS, 0.00702 µM
[15] = RPMI 5 mM glucose + 10% FBS, 0.0211 µM
[16] = RPMI 5 mM glucose + 10% FBS, 0.0632 µM
[17] = RPMI 5 mM glucose + 10% FBS, 0.19 µM
[18] = RPMI 5 mM glucose + 10% FBS, 0.569 µM
[19] = RPMI 5 mM glucose + 10% FBS, 1.71 µM
[20] = RPMI 5 mM glucose + 10% FBS, 5.12 µM
[21] = RPMI 5 mM glucose + 10% FBS, 15.4 µM
[22] = RPMI 5 mM glucose + 10% FBS, 46.1 µM
[23] = RPMI 5 mM glucose + 10% dialyzed FBS, 0.000781 µM
[24] = RPMI 5 mM glucose + 10% dialyzed FBS, 0.00234 µM
[25] = RPMI 5 mM glucose + 10% dialyzed FBS, 0.00702 µM
[26] = RPMI 5 mM glucose + 10% dialyzed FBS, 0.0211 µM
[27] = RPMI 5 mM glucose + 10% dialyzed FBS, 0.0632 µM
[28] = RPMI 5 mM glucose + 10% dialyzed FBS, 0.19 µM
[29] = RPMI 5 mM glucose + 10% dialyzed FBS, 0.569 µM
[30] = RPMI 5 mM glucose + 10% dialyzed FBS, 1.71 µM
[31] = RPMI 5 mM glucose + 10% dialyzed FBS, 5.12 µM
[32] = RPMI 5 mM glucose + 10% dialyzed FBS, 15.4 µM
[33] = RPMI 5 mM glucose + 10% dialyzed FBS, 46.1 µM

| SMILES | cell viability [1] [%] | cell viability [2] [%] | cell viability [3] [%] | cell viability [4] [%] | cell viability [5] [%] | cell viability [6] [%] | cell viability [7] [%] | cell viability [8] [%] | cell viability [9] [%] | cell viability [10] [%] | cell viability [11] [%] | cell viability [12] [%] | cell viability [13] [%] | cell viability [14] [%] | cell viability [15] [%] | cell viability [16] [%] | cell viability [17] [%] | cell viability [18] [%] | cell viability [19] [%] | cell viability [20] [%] | cell viability [21] [%] | cell viability [22] [%] | cell viability [23] [%] | cell viability [24] [%] | cell viability [25] [%] | cell viability [26] [%] | cell viability [27] [%] | cell viability [28] [%] | cell viability [29] [%] | cell viability [30] [%] | cell viability [31] [%] | cell viability [32] [%] | cell viability [33] [%] |
| --- | --- | --- | --- | --- | --- | --- | --- | --- | --- | --- | --- | --- | --- | --- | --- | --- | --- | --- | --- | --- | --- | --- | --- | --- | --- | --- | --- | --- | --- | --- | --- | --- | --- |
| Cc1ccc(NC(=O)c2ccc(CN3CCN(C)CC3)cc2)cc1Nc1nccc(-c2cccnc2)n1 | 93.8 | 95.7 | 105 | 97.9 | 113 | 103 | 112 | 109 | 110 | 109 | 92.7 | 98.2 | 107 | 101 | 96.5 | 115 | 113 | 114 | 109 | 103 | 105 | 100 | 102 | 107 | 108 | 111 | 109 | 113 | 115 | 104 | 97.6 | 112 | 106 |
| CSC1=CC(=CC=C1)NC2=NC3=C(C=N2)/C=C(C(=O)N3C)/C4=C(Cl)C=CC=C4Cl | 102 | 95 | 101 | 98.3 | 106 | 110 | 99.2 | 105 | 97.4 | 95.1 | 103 | 99.6 | 111 | 115 | 109 | 115 | 106 | 112 | 112 | 109 | 95.5 | 102 | 110 | 109 | 110 | 90.8 | 110 | 120 | 112 | 112 | 109 | 97.5 | 97.7 |
| ClC1=CC=C(CCCOC/2=N/NC(=O)C(=C2NCC3=CN=CC=C3)/Br)C=C1 | 115 | 115 | 113 | 117 | 118 | 110 | 104 | 95.5 | 61.6 | 35.7 | 14.4 | 109 | 114 | 110 | 122 | 125 | 124 | 113 | 112 | 96.3 | 69.6 | 38.5 | 113 | 115 | 116 | 110 | 110 | 115 | 106 | 90.4 | 56.7 | 26.9 | 13.7 |
| COc1nc(-c2ccc3c(c2)OCO3)n(-c2ccc(NC(=O)CSc3ccccc3)cc2)n1 | 109 | 108 | 111 | 107 | 108 | 110 | 112 | 104 | 104 | 103 | 108 | 107 | 116 | 113 | 118 | 118 | 113 | 113 | 103 | 102 | 97.2 | 92.5 | 130 | 107 | 119 | 107 | 116 | 104 | 120 | 108 | 95.9 | 108 | 85.6 |
| Cc1[nH]c(/C=C2\C(=O)Nc3ccc([S+](=O)([O-])N(C)c4cccc(Cl)c4)cc32)c(C)c1C(=O)N1CCN(C)CC1 | 118 | 130 | 124 | 119 | 126 | 127 | 119 | 110 | 111 | 76.7 | 0.631 |  |  |  |  |  |  |  |  |  |  |  |  |  |  |  |  |  |  |  |  |  |  |
| CC#C[C@]1(O)CC[C@H]2[C@@H]/3CCC/4=C/C(=O)CCC4=C3[C@H](C[C@]12C)C5=CC=C(C=C5)N(C)C | 101 | 101 | 103 | 105 | 107 | 110 | 107 | 98.7 | 102 | 75.1 | 73.1 | 95.6 | 108 | 105 | 104 | 105 | 93.9 | 106 | 87.4 | 83.4 | 61.2 | 30.8 | 80 | 94 | 92.7 | 98.9 | 102 | 97.6 | 93 | 95.9 | 83 | 51.5 | 39.6 |
| NC1CCC(N[C@@H]2C[C@H]2c2ccccc2)CC1 (some centres undefined) | 87.9 | 92.4 | 94.6 | 94.5 | 102 | 102 | 105 | 99.5 | 106 | 94.7 | 98.5 | 92 | 94.6 | 106 | 102 | 102 | 100 | 95 | 76.6 | 100 | 102 | 91.2 | 92.2 | 98.1 | 105 | 99 | 96.5 | 109 | 103 | 97.8 | 98.2 | 88.9 | 84 |
